Literature values, collected in US20230076766A1, “METHOD FOR TREATMENT OF ROSACEA IN PATIENTS AGED 35-64 YEARS” (Sol-Gel Technologies Ltd., priority 2021, published 2023).

Tested on: rosacea lesions
Details: BPO as the sole active agent

O=C(OOC(=O)c1ccccc1)c1ccccc1 [BPO, Benzoyl peroxide]
response of rosacea lesions: unresponsive
